Read-outs that look alike come from different tables or passages of the source.
Assays:
visna virus = assay: microbe, parasite or virus in culture; assay type: cell-based; details: for inhibition at 100 µM / inhibition at 1000 µM: Visna-maedi virus
α-glucosidase = assay: Inhibition of α-glucosidase in conventional enzyme assay; assay type: biochemical; details: 1 mM concentration
β-glucosidase = assay: Inhibition of β-glucosidase in conventional enzyme assay; assay type: biochemical; details: 1 mM concentration
[1] = read-out: Visna % Plaque Redn (Conc)
[2] = read-out: Visna % Plague Redn (Conc)

Row | Structure (SMILES) | inhibition at 100 µM (visna virus; [1]) [%] | inhibition at 100 µM (visna virus; [2]) [%] | inhibition at 1000 µM (visna virus; [1]) [%] | further results
1 | [N-]=[N+]=N[C@H]1CN[C@H](CO)[C@@H](O)[C@@H]1O [Compound 12, 2-azido-1,2,5-trideoxy-1,5-imino-D-glucitol] | 76 | – | – | –
2 | CCCCN1CC(N=[N+]=[N-])C(O)C(O)C1CO [Compound 13, 2-azido-1,5-(butylimino)-1,2,5-trideoxy-D-glucitol] | 78 | 78 | – | –
3 | CCC(CC)CN1CC(N=[N+]=[N-])C(O)C(O)C1CO [Compound 14, 2-azido-1,5-{(2-ethylbutyl)imino}-1,2,5-trideoxy-D-glucitol] | 67 | – | – | –
4 | [N-]=[N+]=NC1CN(CCCC(F)(F)F)C(CO)C(O)C1O [Compound 15, 2-azido-1,5-{(4,4,4-trifluorobutyl)imino}-1,2,5-trideoxy-D-glucitol] | – | – | 41 | –
5 | N[C@H]1CN[C@H](CO)[C@@H](O)[C@@H]1O [Compound 20, 2-amino-1,2,5-trideoxy-1,5-imino-D-glucitol] | 91 | – | – | –
6 | CCCCN1CC(N)C(O)C(O)C1CO [Compound 21, 2-amino-1,5-(butylimino)-1,2,5-trideoxy-D-glucitol] | 66 | 66 | – | –
7 | CCC(CC)CN1CC(N)C(O)C(O)C1CO [Compound 22, 2-amino-1,5-{(2-ethylbutyl)imino}-1,2,5-trideoxy-D-glucitol] | – | – | – | Visna % Plaque Redn (Conc), only a concentration bound printed (visna virus; Table 3, no % printed): > 1 mm
8 | NC1CN(CCCC(F)(F)F)C(CO)C(O)C1O [Compound 23, 2-amino-1,5-{(4,4,4-trifluorobutyl)imino}-1,2,5-trideoxy-D-glucitol] | – | – | 9 | –
9 | CCCCN1CC(N(C)C)C(O)C(O)C1CO [Compound 28, 1,5-(butylimino)-1,2,5-trideoxy-2-(dimethylamino)-D-glucitol] | – | 41 | – | –
10 | CCCCN1CC(NC)C(O)C(O)C1CO [Compound 29, 1,5-(butylimino)-1,2,5-trideoxy-2-(methylamino)-D-glucitol] | – | 25 | – | –
11 | CCCCN1CC(NC(=O)CCC)C(O)C(O)C1CO [Compound 30, 1,5-(butylimino)-1,2,5-trideoxy-2-{(1-oxobutyl)amino}-D-glucitol] | – | 20 | – | –
12 | CCCCN1CC(NC(=O)CCC)C(OC(=O)CCC)C(OC(=O)CCC)C1COC(=O)CCC [Compound 31, 1,5-(butylimino)-1,2,5-trideoxy-2-{(1-oxobutyl)amino}-D-glucitol, tributanoate] | – | 29 | – | –
13 | N[C@H]1[C@H](O)[C@@H](CO)NC[C@@H]1O [Compound 37, 3-amino-1,3,5-trideoxy-1,5-imino-D-glucitol] | – | – | 30 | –
14 | CCCCN1CC(N)C(N)C(O)C1CO [Compound 46, 2,3-diamino-1,5-(butylimino)-1,2,3,5-tetradeoxy-D-glucitol] | – | – | 3 | –
15 | CN(C)CCN[C@@H]1[C@H](O)[C@@H](CO)NC[C@H]1O [Compound 50, 3-[{2-(dimethylamino)ethyl}amino]-1,3,5-trideoxy-1,5-imino-D-altritol] | – | – | 38 | inhibition of α-glucosidase (α-glucosidase): 22%; inhibition of β-glucosidase (β-glucosidase): 22%

From patent US5550243A, “B preparation of 2- and 3- azido derivates of 1,5-iminosugars” (priority 1995, dated 1996)
